Source: publication PMC4309848, “The role of the catecholic and the electrophilic moieties of caffeic acid in Nrf2/Keap1 pathway activation in ovarian carcinoma cell lines” (Redox Biology, 2014)
pIC50: −log10 of the molar value.

Key:
[1] = target: glutathione-S-transferase (GST, GSTP1); test: in vitro enzyme activity assay (GSH/CDNB conjugation, absorbance at […] nm); type: biochemical
[2] = target: glutathione reductase-1 (GSR, GSR1); test: in vitro enzyme activity assay (GSSG/NADPH, absorbance at […] nm); type: biochemical

pIC50 [1]: 4.02 | pIC50 [2]: 4.15
SMILES: O=C(O)/C=C/c1ccc(O)c(O)c1 [CA, caffeic acid]
